From US9067898B1, “Isothiazole derivatives as GPR120 agonists for the treatment of type II diabetes” (Janssen Pharmaceutica NV, priority 2014, dated 2015)

Legend:
[1] = target: T1, short form of the GPR120 receptor (GPR120S) (Homo sapiens, UniProt Q5NUL3); assay: Human GPR120 DiscoveRx PathHunter Beta-Arrestin assay, Procedure β-arrestin B; assay type: cell-based; conditions: PathHunter CHO-K1 GPR120S β-Arrestin cell line, 5000 cells/well, read-out: hGPR120 β-arrestin B EC50
T1 construct: host or cells: PathHunter CHO-K1 GPR120S β-Arrestin Cell Line
T1 sequence (P32121 whole entry partner, one chain of several): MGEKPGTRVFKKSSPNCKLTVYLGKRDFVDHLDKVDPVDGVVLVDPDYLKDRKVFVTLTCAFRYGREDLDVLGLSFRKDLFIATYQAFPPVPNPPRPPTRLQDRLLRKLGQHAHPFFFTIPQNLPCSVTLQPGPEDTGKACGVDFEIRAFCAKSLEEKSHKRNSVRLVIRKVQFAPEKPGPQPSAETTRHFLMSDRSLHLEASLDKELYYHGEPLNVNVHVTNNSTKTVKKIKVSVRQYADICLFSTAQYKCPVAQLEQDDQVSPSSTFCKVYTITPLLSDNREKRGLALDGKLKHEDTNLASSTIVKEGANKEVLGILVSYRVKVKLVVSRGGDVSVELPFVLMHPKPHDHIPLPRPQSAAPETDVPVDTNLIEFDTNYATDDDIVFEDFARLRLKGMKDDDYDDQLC
Source text: The binding of an agonist (medium/long chain fatty acids or small molecule agonists) to the G-protein-coupled receptor GPR120 activates phospholipase C, leading to release of intracellular Ca^+2 through the generation of inositol 1,4,5-trisphosphate (InsP3 or IP3). GPR120 activation can also trigger intracellular signaling via recruitment of Beta-Arrestin. In the present method, agonist-induced activation of the human GPR120 receptor is monitored through the use of PathHunter CHO-K1 GPR120 Beta-Arrestin Cell Line engineered by DiscoveRx, as detailed below. The cell lines are designed to co-express both the ProLink/Enzyme Donor (PK)-tagged GPCR and the Enzyme […] (EA)-tagged Beta-Arrestin fusion proteins. Upon GPR120 receptor stimulation/activation, the EA-tagged Beta-Arrestin portion is translocated to the tagged receptor, where the two enzyme fragments are brought within close proximity. Under these conditions, these fragments can interact and form an active Beta-gal enzyme complex through Enzyme Fragment Complementation (EFC). This active Beta-gal complex can enzymatically hydrolyse the substrate to produce a detectable light signal; therefore, activation as a function of agonist concentration can be expressed as an EC50 value to determine relative compound activities. This in vitro assay therefore serves to assess compound agonist activity of the GPR120. Procedure β-Arrestin A: In Procedure β-arrestin A, the cell used were PathHunter CHO-K1 GPR120 β-Arrestin Cell Line, expressing the long form of human GPR120 (Genbank accession number NM 181745), with 3000 cells per well. Procedure β-Arrestin B: In Procedure 3-arrestin B the cells used were PathHunter CHO-K1 GPR120S β-Arrestin Cell Line, expressing the short form of the GPR120 receptor (Accession #NM_181745), with 5000 cells/well. Assay Procedure:
The selected CHO-K1 GPR120 β-Arrestin cells were cultured in Ham's F12 media supplemented with 10% fetal bovine serum (FBS), 1% Glutamine, lx p/s, 800 μg/mL G418 and 300 μg/mL Hygromycin B (for selection). Cell stocks were maintained and grown in a sub-confluent state using standard cell culture procedures. The day before the experiment, the cells were harvested with non-enzymatic cell dissociation buffer and re-suspended in complete growth media at the desired concentration. A Corning 384-plate was then seeded with the proper number of cells in a volume of 25 μL, per well. The seeded plates were incubated overnight at 37° C.
On the day of the experiment, the Assay Buffer containing (a) HBSS with Ca^++ and Mg^++, (b) 20 mM HEPES, and (c) 0.1% BSA stabilizer (pH 7.4) was prepared. The growth medium was gently removed from the cell plates and 20 μL of Assay Buffer added to each well. The plate was then incubated at 37° C. for 60 min. Test compounds were serially diluted in Assay Buffer to desired concentrations (more particularly to one or more of the following μM concentrations: 25, 12.5, 6.25, 3.125, 1.5625, 0.78125, 0.390625, 0.1953125, 0.09765625, 0.048828125, 0.024414063, 0.012207031). Five μL of compound dilution was then added to each well and the plate incubated at 37° C. for 90 min. The detection reagents were prepared according to the manufacture's instruction. Twelve μL of the detection reagents were added to each well and the plate incubated at room temperature for 60 min.
The plates were read on an EnVision instrument, using Protocol name: Luminescence, Plate type: 384 Costar, Measurement height: 3 mm, Measurement time: 1 s, Aperture: 384 Plate aperture. The % activity relative to the positive control was calculated using the following equation:
The % Activity values were plotted versus the concentration of test compound and fitted to a sigmoidal dose-response curve with a Hill slope=1 (fixed value) using nonlinear regression with GraphPad Prism 5.0 to calculate the EC50 values. […]

[2] = target: T2, Human GPR120 short form (Homo sapiens, UniProt Q5NUL3); assay: Human GPR120 calcium flux assay (FLIPR), Procedure Calcium A; assay type: cell-based; conditions: HEK-293 cells expressing human GPR120 short form, 2500 cells/well; read-out: GPR120 Ca2+ Assay A EC50
T2 construct: expressed in transfected cells
T2 sequence (Q5NUL3 1-361): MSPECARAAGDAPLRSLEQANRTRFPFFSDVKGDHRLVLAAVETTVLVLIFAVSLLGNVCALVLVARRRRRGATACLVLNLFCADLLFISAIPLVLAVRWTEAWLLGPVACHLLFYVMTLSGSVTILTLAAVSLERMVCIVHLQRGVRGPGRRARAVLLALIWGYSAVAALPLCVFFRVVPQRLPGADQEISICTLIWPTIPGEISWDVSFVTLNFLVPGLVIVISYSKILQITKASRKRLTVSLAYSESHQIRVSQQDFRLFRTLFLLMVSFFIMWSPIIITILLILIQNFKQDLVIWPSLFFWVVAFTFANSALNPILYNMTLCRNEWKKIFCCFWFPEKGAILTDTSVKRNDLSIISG
Summary of the method: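 HEK293 cells stably expressing the short isoform (NM_001195755.1), 2500/well, starved 1 h, then loaded with Fluo-4 NW plus probenecid (30 min 37 °C, 15 min RT). Compound solutions 0.012–100 μM, 0.2% DMSO final; FLIPR read 300 s after addition. EC50 from Fmax−Fmin fitted to variable-slope sigmoid (Hill <2).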

Row | EC50 [1] [nM] | EC50 [2] [nM] | Compound
1 | 1050 | 580 | Cc1cc(CCC(=O)O)c(C(F)(F)F)cc1OCc1c(Cl)nsc1-c1ccccc1C [Cpd 210, 3-(4-((3-chloro-5-(o-tolyl)isothiazol-4-yl)methoxy)-5-methyl-2-(trifluoromethyl)phenyl)propanoic acid]
2 | 1210 | 226 | Cc1ccc(-c2nsc(C(F)(F)F)c2COc2ccc(CCC(=O)O)c(C(F)(F)F)c2)c(F)c1 [Cpd 171, 3-(4-[[3-(2-fluoro-4-methylphenyl)-5-(trifluoromethyl)-1,2-thiazol-4-yl]methoxy]-2-(trifluoromethyl)phenyl)propanoic acid]
3 | 132 | 160 | O=C(O)CCc1cc(F)c(OCc2c(-c3ccccc3)nsc2C(F)(F)F)c(F)c1 [Cpd 145, 3-(3,5-difluoro-4-((3-phenyl-5-(trifluoromethyl)isothiazol-4-yl)methoxy)phenyl)propanoic acid]
4 | 1940 | 405 | 3-(4-[[5-chloro-3-(4-chlorophenyl)thiophen-2-yl]methoxy]-2,3-dimethylphenyl) propanoic acid [Cpd 6]
5 | 227 | 840 | CCc1ccc(-c2nsc(C(F)(F)F)c2COc2ccc(CCC(=O)O)c(C)c2C)c(F)c1 [Cpd 225, 3-(4-((3-(4-ethyl-2-fluorophenyl)-5-(trifluoromethyl)isothiazol-4-yl)methoxy)-2,3-dimethylphenyl)propanoic acid]
6 | 1510 | 382 | 3-(4-((3-(2,4-difluorophenyl)-5-(trifluoromethyl)isothiazol-4-yl)methoxy)-3,5-difluorophenyl)propanoic acid [Cpd 174]
7 | 230 | 247 | Cc1ccc(-c2snc(Cl)c2COc2ccc(CCC(=O)O)c(C(F)(F)F)c2)c(F)c1 [Cpd 175, 3-(4-[[3-chloro-5-(2-fluoro-4-methylphenyl)-1,2-thiazol-4-yl]methoxy]-2-(trifluoromethyl)phenyl)propanoic acid]
8 | 85 | 169 | COc1ccc(-c2nsc(C(F)(F)F)c2COc2c(F)cc(CCC(=O)O)cc2F)c(F)c1 [Cpd 151, 3-(3,5-difluoro-4-[[3-(2-fluoro-4-methoxyphenyl)-5-(trifluoromethyl)-1,2-thiazol-4-yl]methoxy]phenyl)propanoic acid]
9 | 427 | 210 | O=C(O)CCc1cc(F)c(OCc2c(C3CCC(F)(F)C3)nsc2C(F)(F)F)c(F)c1 (centres unmarked) [Cpd 164, 3-(4-[[3-(3,3-difluorocyclopentyl)-5-(trifluoromethyl)-1,2-thiazol-4-yl]methoxy]-3,5-difluorophenyl)propanoic acid]
10 | 40 | 362 | CCc1ccc(-c2nsc(C(F)(F)F)c2COc2c(F)cc(CCC(=O)O)cc2F)cc1F [Cpd 194, 3-(4-((3-(4-ethyl-3-fluorophenyl)-5-(trifluoromethyl)isothiazol-4-yl)methoxy)-3,5-difluorophenyl)propanoic acid]
11 | 118 | 89 | 3-(4-[[3-(4-ethylphenyl)-5-methoxy-1,2-thiazol-4-yl]methoxy]-2,3-dimethylphenyl)propanoic acid [Cpd 228]
12 | 421 | 236 | O=C(O)CCc1ccc(OCc2c(-c3ccc(Cl)cc3)nsc2C(F)(F)F)cc1C(F)(F)F [Cpd 173, 3-(4-[[3-(4-chlorophenyl)-5-(trifluoromethyl)-4-yl]methoxy]-2-(trifluoromethyl)phenyl)propanoic acid]
13 | 526 | 135 | Cc1c(CCC(=O)O)ccc(OCc2c(C(F)(F)F)nsc2-c2ccc(Cl)c(F)c2)c1C [Cpd 136, 3-(4-[[5-(4-chloro-3-fluorophenyl)-3-(trifluoromethyl)-1,2-thiazol-4-yl]methoxy]-2,3-dimethylphenyl)propanoic acid]
14 | 74 | 600 | CCc1ccc(-c2nsc(C(F)(F)F)c2COc2c(F)cc(CC(C)C(=O)O)cc2F)cc1F (centres unmarked) [Cpd 212, 3-(4-((3-(4-ethyl-3-fluorophenyl)-5-(trifluoromethyl)isothiazol-4-yl)methoxy)-3,5-difluorophenyl)-2-methylpropanoic acid]
15 | 741 | 530 | O=C(O)C1CC1c1ccc(OCc2c(-c3ccc(Cl)cc3)nsc2C(F)(F)F)cc1 (centres unmarked) [Cpd 205, 2-(4-((3-(4-chlorophenyl)-5-(trifluoromethyl)isothiazol-4-yl)methoxy)phenyl)cyclopropanecarboxylic acid]
16 | 223 | 121 | COc1cccc(-c2nsc(C(F)(F)F)c2COc2ccc(CCC(=O)O)c(C)c2C)c1 [Cpd 126, 3-(4-[[3-(3-methoxyphenyl)-5-(trifluoromethyl)-1,2-thiazol-4-yl]methoxy]-2,3-dimethylphenyl) propanoic acid]
17 | 51 | 108 | O=C(O)CCc1cc(F)c(OCc2c(-c3ccc(C(F)(F)F)cc3)nsc2C(F)(F)F)c(F)c1 [Cpd 121, 3-(3,5-difluoro-4-[[5-(trifluoromethyl)-3-[4-(trifluoromethyl)phenyl]-1,2-thiazol-4-yl]methoxy]phenyl)propanoic acid]
18 | 416 | 67 | Cc1ccc(-c2nsc(C(F)(F)F)c2COc2ccc(CCC(=O)O)c(C)c2C)c(F)c1 [Cpd 89, 3-(4-[[3-(2-fluoro-4-methylphenyl)-5-(trifluoromethyl)-1,2-thiazol-4-yl]methoxy]-2,3-dimethylphenyl)propanoic acid]
19 | 413 | 137 | Cc1c(CCC(=O)O)ccc(OCc2c(C3CC(F)(F)C3)nsc2C(F)(F)F)c1C [Cpd 137, 3-(4-[[3-(3,3-difluorocyclobutyl)-5-(trifluoromethyl)-1,2-thiazol-4-yl]methoxy]-2,3-dimethylphenyl) propanoic acid]
20 | 147 | 229 | COc1ccc(-c2nsc(C(F)(F)F)c2COc2ccc(CCC(=O)O)c(C)c2C)cc1F [Cpd 172, 3-(4-[[3-(3-fluoro-4-methoxyphenyl)-5-(trifluoromethyl)-1,2-thiazol-4-yl]methoxy]-2,3-dimethylphenyl)propanoic acid]
21 | 310 | 107 | 3-(4-((3-(4-ethylphenyl)-5-(trifluoromethyl)isothiazol-4-yl)methoxy)-2,3,5-trifluorophenyl)propan-1-ol [Cpd 238]
22 | 374 | 156 | Cc1c(CCC(=O)O)ccc(OCc2c(-c3ccc(F)c(F)c3)nsc2C(F)(F)F)c1C [Cpd 143, 3-(4-((3-(3,4-difluorophenyl)-5-(trifluoromethyl)isothiazol-4-yl)methoxy)-2,3-dimethylphenyl)propanoic acid]
